Assay [1] relates to tomato (Solanum lycopersicum) cv Moneymaker. The assay is described as follows: Growth assay of tomato seedlings from seeds primed with IR-PRN. It counts as in vivo. Here is the method: Seeds of tomato (Solanum lycopersicum) cv Moneymaker were primed with a priming solution containing 25% PEG without (control) or with IR-PRN.
The seeds were sown in randomly placed small tagged pots containing potting mixture, in a glasshouse at a night and day temperature of 15-18° C. and 22-27° C., respectively. Plant height, weight and dry weight were measured when the plant reached 3-5 true leaves. Typically the seedlings were 4-5 weeks old.

For the next assay, the system named is Rhizoctonia solani. The assay is described as follows: Bioassay for inhibition of Rhizoctonia solani in vitro. It is filed as cell-based. The settings on record: plant-extracted, HPLC-purified PRN; 28° C., 3 days. Here is the method:
R. solani was cultured on potato dextrose agar at 28° C. A disk (30 mm in diameter) of R. solani-containing agar was transferred to another Petri dish containing potato dextrose agar and 10 μl of HPLC elution buffer (negative control), 10 μl of various plant extracts, or 10 μl containing 0.2 mg of synthetic PRN in elution buffer (Sigma, positive control). Inhibition of fungal growth was determined after incubation at 28° C. for 3 days.

The next assay concerns R. solani. In words: Assay for R. solani resistance (damping-off disease) of tomato plants. It is filed as in vivo. The settings on record: control plants wilted within 2 weeks. Here is the method:
Roots of tomato (Solanum lycopersicum) seedlings were immersed in a water solution of IL-60-BS and IR-PRN or IR-PRN-GFP (1 μg/plantlet) until the entire solution was sucked up by the plants. The plants were then potted and kept in the greenhouse at 24° C. Tomato seedlings, 2 weeks after application of IL-60-BS and IR-PRN, were transferred to pots with 0.5 kg of soil mixed with 0.5 g of R. solani mycelium. Control plants (not carrying PRN) were similarly treated. Plants were kept for 2 to 3 weeks at 24° C. until symptom appearance.

[2] abbreviates: plant expressing PRN, seedlings at 3-5 true leaves, 4-5 weeks old.

Consider `O=[N+]([O-])c1c(Cl)cccc1-c1c[nH]cc1Cl` [PRN, 3-chloro-4-(2′-nitro-3′-chlorophenyl)-pyrrole], for which, in assay [1] (setting [2]), the Dry weight was determined as 3.6 gr, the “Dry weight (% of fresh weight)” value is 42.7 % of fresh weight, the Fresh weight was found to be 9.2 gr and the Height was found to be 11 cm. Also, in assay [1] (relative to control plant), the “Growth Enhancement (%), Dry weight” value amounted to 276.9%; the “Growth Enhancement (%), Dry weight (% of fresh weight)” value is on record as 159.9%; the “Growth Enhancement (%), Fresh weight” value was 191.7%; the “Growth Enhancement (%), Height” value is 134.1%. In the assay on Rhizoctonia solani, the “Inhibition of growth of R. solani” value is “inhibitory”. In addition, in the assay with R. solani, the “State of plants in R. solani-infested soil” value is given as “remained healthy”.

For the origin of these results see patent US20140325707A1, “GROWTH ENHANCEMENT OF PLANTS” (Yissum Research Development Company of the Hebrew …, priority 2011, published 2014).
